From patent US20200181284A1, “EPIGENETIC INHIBITORS FOR SENSITIZING HEMATOLOGIC OR OTHER MALIGNANCIES TO GLUCOCORTICOID THERAPY” (UNIVERSITY OF SOUTHERN CALIFORNIA, priority 2017, published 2020)

Assays:
[1] = tested on: G9a and GLP coactivator function with GR; assay: Transient MMTV-LUC luciferase reporter gene assay in CV-1 cells (GR, GRIP1, G9a or GLP); format: cell-based, human
Description: CV-1 cells were plated in hormone-free medium with 5% charcoal-stripped serum in 24-well plates the day before transfection. Cells were transfected using Lipofectamine 2000 (Invitrogen) with the indicated plasmids according to the manufacturer's protocol. After transfection, the cells were grown in hormone-free medium for 48 h in the presence or absence of 100 nM dex. Cell lysis and luciferase assays on cell extracts were performed with Promega luciferase assay kit. An aliquot of the cell lysate was reserved for immunoblot analysis of input samples. The results were normalized as indicated and presented as the mean±SEM of at least four independent experiments.
The results as shown in FIGS. 20A-20D generally highlight that G9a and GLP PTMs regulate their coactivator function. For FIG. 20A, CV-1 cells were transfected with MMTV-LUC reporter plasmid (200 ng) and plasmids encoding GR (1 ng), Grip1 (100 ng) and HA-labeled full length (FL) hG9a wild type or K185A or K185R mutants (150 or 400 ng) as indicated. Cells were grown with 100 nM dex or the equivalent amount of ethanol for 48 h and assayed for luciferase activity. Relative luciferase units are normalized to sample 3 and represent mean±SEM for eight independent experiments. p-value was calculated using a paired t-test. *p≤0.05, **p≤0.01. Whole-cell extracts were analyzed for G9a expression by immunoblot with anti-HA antibody. For FIG. 20B, transient reporter gene assays were performed as in A with HA-labeled hGLP WT or hGLP K205A (150 or 400 ng) as indicated. Relative luciferase units are normalized to sample 3 and represent mean±SEM for six independent experiments. p-value was calculated using a paired t-test. *p≤0.05. […] Relative luciferase units are normalized to sample 3 and represent mean±SEM for four independent experiments. p-value was calculated using a paired t-test. * * *p≤0.001. […] Relative luciferase units are normalized to sample 3 and represent mean±SEM for four independent experiments. p-value was calculated using a paired t-test. *p≤0.05. […]

GR-HP1γ interaction = assay: Proximity ligation assay of GR and HP1γ in A549 cells; format: cell-based, human
Description: The experiments were performed following the manufacturer's instructions as previously described. Cells were grown on coverslips in 12-well plates, fixed in methanol for 2 min, and then washed twice in PBS. Firstly, the samples were saturated using the blocking solution, then different pairs of primary antibodies (HP1γ (Abcam ab10480) and GR (Santa Cruz sc-393232) in order to analyze HP1γ-GR, G9a (Sigma G6919) and HP1γ (Abcam ab56978) in order to analyze HP1γ-G9a interaction and HA-Tag (6E2) (Cell signaling #2367) and HP1γ (Abcam ab10480) in order to analyze HA- HP1γ interaction) were incubated with the fixed cells for 1 h at 37° C. […] Afterwards, the samples were mounted with Duolink II Mounting Medium containing Dapi in order to counterstain nuclei, and then analyzed on Zeiss Imager.Z1 fluorescence microscope. For each sample interactions were counted for 1000 cells using Image J software [46b].
The results as shown in FIGS. 18A-18E generally highlight that G9a and GLP methylation is required for HP1γ-G9a/GLP-GR ternary complex formation. […] The detected interactions are indicated by red dots. […] The number of interactions detected by Image J analysis is shown as the mean±SEM of three independent experiments. p-value was determined using a paired t-test. **p≤0.01. […] Whole-cell extracts were analyzed for G9a, GLP, GR, HP1γ and β-actin expression by immunoblot. […]

SMILES: Clc1ccc(N/N=C(\c2ccccc2)c2ccccn2)nc1 [JIB-04, 5-chloro-N-[(E)-[phenyl(pyridin-2-yl)methylidene]amino]pyridin-2-amine]
- dex-induced expression of the reporter gene ([1]; GR, GRIP1 and wild type G9a): enhanced
- dex-induced expression of the reporter gene ([1]; mutant G9a with the methylation site mutated from lysine to arginine): no effect
- dex-induced interaction between GR and HP1γ in PLA (GR-HP1γ interaction; A549 cells treated with dex and JIB-04): enhanced

SMILES: COc1cc2c(NC3CCN(C4CCCCC4)CC3)nc(N3CCCN(C(C)C)CC3)nc2cc1OCCCN1CCCCC1 [UNC0646]
- GR-HP1γ interaction in PLA (GR-HP1γ interaction; A549 cells, 2 μM UNC0646 24 h, 100 nM dex for the final 2 h): strongly decreased

SMILES: COc1cc2c(Nc3ccc(NC(=O)c4ccccc4)cc3)ncnc2cc1OCCCN1CCOCC1 [ZM447439, N-[4-[[6-methoxy-7-(3-morpholin-4-ylpropoxy)quinazolin-4-yl]amino]phenyl]benzamide]
- coactivator function of G9a and GLP, in cooperation with GRIP1 ([1]; 100 nM dex and 2 μM ZM447439, 48 h): significantly enhanced
